For 29 compounds, inhibition results are on record in patent publication US12612384B2, “Heterocyclic CYP4A inhibitor compounds and compositions thereof” (MBD CO., LTD., priority 2021, dated 2026).

Where only a bound is given, the exact number is not on record here.

Broadly, the inhibition is the relative decrease from the control value, in per cent.

The first test concerns the target T1, CYP4A (Homo sapiens, UniProt Q02928).
T1 construct: purchased; host or cells: bacterial membranes ('bactosome')
T1 sequence (Q02928 5-519): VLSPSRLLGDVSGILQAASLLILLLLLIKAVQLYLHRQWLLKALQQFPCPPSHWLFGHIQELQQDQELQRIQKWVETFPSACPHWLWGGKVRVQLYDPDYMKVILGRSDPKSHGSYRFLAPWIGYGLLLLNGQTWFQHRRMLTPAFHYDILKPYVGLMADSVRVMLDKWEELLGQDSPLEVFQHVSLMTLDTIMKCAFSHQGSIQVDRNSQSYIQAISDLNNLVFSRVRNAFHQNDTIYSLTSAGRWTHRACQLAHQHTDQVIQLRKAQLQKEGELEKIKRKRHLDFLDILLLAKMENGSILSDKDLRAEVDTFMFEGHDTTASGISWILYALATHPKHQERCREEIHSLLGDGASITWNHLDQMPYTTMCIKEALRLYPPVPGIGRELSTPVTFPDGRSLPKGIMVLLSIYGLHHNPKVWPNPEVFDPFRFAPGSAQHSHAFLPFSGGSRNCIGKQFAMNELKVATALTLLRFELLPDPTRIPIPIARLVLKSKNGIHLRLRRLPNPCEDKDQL
The test can be described thus: CYP4A enzyme assay (luminescence, Luciferin-ME). It counts as biochemical. Particulars: Compound concentration 5 μM; 50%-70%; read-out: % Inhibition 50%-70%. Put shortly: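 Compounds (5 μM) were preincubated 15 min at room temperature with CYP4A bactosomes in 100 mM KPO4, 0.1% BSA, 1 mM DTT. Reaction ran 30 min at room temperature after adding 5 mM Luciferin-ME and NADPH regeneration system. Luminescence after 15 min with detection reagent; inhibition judged by comparing well signals.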
As to `O=C(c1ccc(F)cc1)N1CCCC(C(=O)N2CCN(c3cc(C(F)(F)F)nc4ccccc34)CC2)C1` (centres unmarked) [Example 96, (1-(4-fluorobenzoyl)piperidin-3-yl)(4-(2-(trifluoromethyl)quinolin-4-yl)piperazin-1-yl)methanone], the inhibition at 5 µM is 50 to 70%.
Take `Cc1cc(N2CCN(C(=O)C3CCCN(C(=O)c4ccncc4)C3)CC2)c2ccccc2n1` (centres unmarked) [Example 104, (1-isonicotinoylpiperidin-3-yl)(4-(2-methylquinolin-4-yl)piperazin-1-yl)methanone]: the inhibition at 5 µM was 50 to 70%.
On the same count and under the same terms, the value for `O=C(C1CCCN(S(=O)(=O)c2ccncc2)C1)N1CCN(c2cc(C(F)(F)F)nc3ccccc23)CC1` (centres unmarked) [Example 128, (1-(pyridin-4-ylsulfonyl)piperidin-3-yl)(4-(2-(trifluoromethyl)quinolin-4-yl)piperazin-1-yl)methanone] was 50 to 70%.
On to `Cc1nc(N2CCN(C(=O)C3CCCN(S(=O)(=O)c4ccc(F)cc4)C3)CC2)c2ccccc2n1` (centres unmarked) [Example 81, (1-(4-fluorophenylsulfonyl)piperidin-3-yl)(4-(2-methylquinazolin-4-yl)piperazin-1-yl)methanone], for which the inhibition at 5 µM was in the range of 50 to 70%.
Take `Cc1cc(N2CCN(C(=O)C3CCCN(C(=O)c4ccc(F)cc4)C3)CC2)c2ccccc2n1` (centres unmarked) [Example 101, (1-(4-fluorobenzoyl)piperidin-3-yl)(4-(2-methylquinolin-4-yl)piperazin-1-yl)methanone]: the inhibition at 5 µM lay in the range of 50 to 70%.
Same read-out and setting: with `CC(=O)Nc1ccc(C(=O)N2CCCC(C(=O)N3CCN(c4cc(C)nc5ccccc45)CC3)C2)cc1` (centres unmarked) [Example 100, N-(4-(3-(1-(2-methylquinolin-4-yl)piperazine-4-carbonyl)piperidine-1-carbonyl)phenyl)acetamide] the figure was 50 to 70%.

The test is the same for the next values; noted with them: Compound concentration 5 μM; 70%-90%; read-out: % Inhibition 70%-90%.
For the compound `COc1ccc(S(=O)(=O)N2CCC(C(=O)N3CCN(c4ccnc5ccccc45)CC3)C2)cn1` (centres unmarked) [Example 51, (1-((6-methoxypyridin-3-yl)sulfonyl)pyrrolidin-3-yl)(4-(quinolin-4-yl)piperazin-1-yl)methanone], the inhibition at 5 µM was 70 to 90%.
In the case of `O=C(C1CCN(Cc2ccc([N+](=O)[O-])cc2)C1)N1CCN(c2ccnc3cc(F)ccc23)CC1` (centres unmarked) [Example 53, (4-(7-fluoroquinolin-4-yl)piperazin-1-yl)(1-(4-nitrobenzyl)pyrrolidin-3-yl)methanone], the inhibition at 5 µM was 70 to 90%.
For the compound `NCCn1cnc(S(=O)(=O)N2CC[C@H](C(=O)N3CCN(c4ccnc5cc(F)ccc45)CC3)C2)n1` [Example 144, (S)-(1-((1-(2-aminoethyl)-1H-1,2,4-triazol-3-yl)sulfonyl)pyrrolidin-3-yl)(4-(7-fluoroquinolin-4-yl)piperazin-1-yl)methanone], the inhibition at 5 µM lay within 70 to 90%.
For `O=C(C1CCN(S(=O)(=O)c2ccc(C(F)(F)F)cn2)C1)N1CCN(c2ccnc3ccccc23)CC1` (centres unmarked) [Example 41, (4-(quinolin-4-yl)piperazin-1-yl)(1-((5-(trifluoromethyl)pyridin-2-yl)sulfonyl)pyrrolidin-3-yl)methanone], the inhibition at 5 µM is 70 to 90%.
On to `O=C(C1CCN(S(=O)(=O)c2ccc(Br)cc2)CC1)N1CCN(c2ccnc3ccccc23)CC1` [Example 63, (1-((4-bromophenyl)sulfonyl)piperidin-4-yl)(4-(quinolin-4-yl)piperazin-1-yl)methanone], for which the inhibition at 5 µM fell in the range of 70 to 90%.
On to `NCCn1ccnc1S(=O)(=O)N1CC[C@H](C(=O)N2CCN(c3ccnc4cc(F)ccc34)CC2)C1` [Example 150, (S)-(1-((1-(2-aminoethyl)-1H-imidazol-2-yl)sulfonyl)pyrrolidin-3-yl)(4-(7-fluoroquinolin-4-yl)piperazin-1-yl)methanone], for which the inhibition at 5 µM lay within 70 to 90%.

The test is the same for the next values; noted with them: Compound concentration 5 μM; Greater than 90%; read-out: % Inhibition Greater than 90%.
For the compound `O=C(C1CCN(S(=O)(=O)c2ncn[nH]2)C1)N1CCN(c2ccnc3cc(F)ccc23)CC1` (centres unmarked) [Example 10, (1-((1H-1,2,4-triazol-5-yl)sulfonyl)pyrrolidin-3-yl)(4-(7-fluoroquinolin-4-yl)piperazin-1-yl)methanone], the inhibition at 5 µM was above 90%.
For the compound `O=C(C1CCN(S(=O)(=O)c2ccc(O)cc2)C1)N1CCN(c2ccnc3cc(F)ccc23)CC1` (centres unmarked) [Example 4, (4-(7-fluoroquinolin-4-yl)piperazin-1-yl)(1-((4-hydroxyphenyl)sulfonyl)pyrrolidin-3-yl)methanone], the inhibition at 5 µM was above 90%.
In the case of `O=C(C1CCN(S(=O)(=O)c2ccc(-c3ccc(O)nc3)cc2)C1)N1CCN(c2ccnc3ccccc23)CC1` (centres unmarked) [Example 34, (1-((4-(6-hydroxypyridin-3-yl)phenyl)sulfonyl)pyrrolidin-3-yl)(4-(quinolin-4-yl)piperazin-1-yl)methanone], the inhibition at 5 µM is above 90%.
As to `O=C([C@H]1CCN(S(=O)(=O)c2ncn[nH]2)C1)N1CCN(c2ccnc3cc(F)ccc23)CC1` [Example 19, (S)-(1-((1H-1,2,4-triazol-5-yl)sulfonyl)pyrrolidin-3-yl)(4-(7-fluoroquinolin-4-yl)piperazin-1-yl)methanone], the inhibition at 5 µM was above 90%.
Consider `Cc1n[nH]c(C)c1S(=O)(=O)N1CCC(C(=O)N2CCN(c3ccnc4cc(F)ccc34)CC2)C1` (centres unmarked) [Example 11, (1-((3,5-dimethyl-1H-pyrazol-4-yl)sulfonyl)pyrrolidin-3-yl)(4-(7-fluoroquinolin-4-yl)piperazin-1-yl)methanone], for which the inhibition at 5 µM was above 90%.
As for `O=C(C1CCN(S(=O)(=O)c2ccc(-c3cccnc3)cc2)CC1)N1CCN(c2ccnc3cc(F)ccc23)CC1` [Example 58, (4-(7-fluoroquinolin-4-yl)piperazin-1-yl)(1-((4-(pyridin-3-yl)phenyl)sulfonyl)piperidin-4-yl)methanone], the inhibition at 5 µM is above 90%.
Turning to `O=C(C1CN(S(=O)(=O)c2ccc([N+](=O)[O-])cc2)C1)N1CCN(c2ccnc3cc(F)ccc23)CC1` [Example 67, (4-(7-fluoroquinolin-4-yl)piperazin-1-yl)(1-((4-nitrophenyl)sulfonyl)azetidin-3-yl)methanone], the inhibition at 5 µM is above 90%.
Turning to `O=C(C1CCN(S(=O)(=O)c2ncc[nH]2)C1)N1CCN(c2ccnc3ccccc23)CC1` (centres unmarked) [Example 42, (1-((1H-imidazol-2-yl)sulfonyl)pyrrolidin-3-yl)(4-(quinolin-4-yl)piperazin-1-yl)methanone], the inhibition at 5 µM is above 90%.
Same read-out and setting: with `O=C(C1CCN(S(=O)(=O)c2ncc[nH]2)C1)N1CCN(c2ccnc3cc(F)ccc23)CC1` (centres unmarked) [Example 13, (1-((1H-imidazol-2-yl)sulfonyl)pyrrolidin-3-yl)(4-(7-fluoroquinolin-4-yl)piperazin-1-yl)methanone] the figure was above 90%; with `COCCn1cnc(S(=O)(=O)N2CC[C@H](C(=O)N3CCN(c4ccnc5cc(F)ccc45)CC3)C2)n1` [Example 143, (S)-(4-(7-fluoroquinolin-4-yl)piperazin-1-yl)(1-((1-(2-methoxyethyl)-1H-1,2,4-triazol-3-yl)sulfonyl)pyrrolidin-3-yl)methanone], above 90%.
Regarding `O=C([C@H]1CCN(S(=O)(=O)c2ncn[nH]2)C1)N1CCN(c2ccnc3cc(F)c(F)cc23)CC1` [Example 168, (S)-(1-((1H-1,2,4-triazol-5-yl)sulfonyl)pyrrolidin-3-yl)(4-(6,7-difluoroquinolin-4-yl)piperazin-1-yl)methanone], the inhibition at 5 µM is above 90%.
`O=C([C@H]1CCN(S(=O)(=O)c2ncc[nH]2)C1)N1CCN(c2ccnc3ccc(F)cc23)CC1` [Example 159, (S)-(1-((1H-imidazol-2-yl)sulfonyl)pyrrolidin-3-yl)(4-(6-fluoroquinolin-4-yl)piperazin-1-yl)methanone]: the inhibition at 5 µM was above 90%.
`O=C([C@H]1CCN(S(=O)(=O)c2ccc([N+](=O)[O-])cc2)C1)N1CCN(c2ccnc3cc(F)ccc23)CC1` [Example 158, (S)-(4-(7-fluoroquinolin-4-yl)piperazin-1-yl)(1-((4-nitrophenyl)sulfonyl)pyrrolidin-3-yl)methanone]: the inhibition at 5 µM was above 90%.
Turning to `O=C(C1CCN(S(=O)(=O)c2ccc([N+](=O)[O-])cc2)CC1)N1CCN(c2ccnc3cc(F)ccc23)CC1` [Example 54, (4-(7-fluoroquinolin-4-yl)piperazin-1-yl)(1-((4-nitrophenyl)sulfonyl)piperidin-4-yl)methanone], the inhibition at 5 µM is above 90%.
Consider `O=C([C@H]1CCN(S(=O)(=O)c2ncn(CCO)n2)C1)N1CCN(c2ccnc3cc(F)ccc23)CC1` [Example 140, (S)-(4-(7-fluoroquinolin-4-yl)piperazin-1-yl)(1-((1-(2-hydroxyethyl)-1H-1,2,4-triazol-3-yl)sulfonyl)pyrrolidin-3-yl)methanone], for which the inhibition at 5 µM is above 90%.
Turning to `O=C([C@@H]1CCN(S(=O)(=O)c2ncn[nH]2)C1)N1CCN(c2ccnc3cc(F)ccc23)CC1` [Example 134, (R)-(1-((1H-1,2,4-triazol-5-yl)sulfonyl)pyrrolidin-3-yl)(4-(7-fluoroquinolin-4-yl)piperazin-1-yl)methanone], the inhibition at 5 µM is above 90%.
On to `CC(=O)Nc1ccc(S(=O)(=O)N2CCC(C(=O)N3CCN(c4ccnc5cc(F)ccc45)CC3)C2)cc1` (centres unmarked) [Example 1, N-(4-((3-(4-(7-fluoroquinolin-4-yl)piperazine-1-carbonyl)pyrrolidin-1-yl)sulfonyl)phenyl)acetamide], for which the inhibition at 5 µM was above 90%.
